# In EP2842557A1, “Mildronate in ophthalmic disorders” (SIGMA-TAU Industrie Farmaceutiche Riunite S.p.A., priority 2013, dated 2015):
# What was measured:
# Assay type in all cases: in vivo, male Wistar rats
# optic nerve and retina = experiment: Cellular morphology of optic nerve and retina sections after intraocular injection; details: 24 hours
# Experimental: (§1) A group of 55 male Wistar rats, average weight 300-350 g, were housed in controlled light and temperature with unlimited access to food and water. 20 animals were submitted to intraocular injection of 0.5 mM, 2 mM, 3.5 mM, 5 mM mildronate, 15 µl in physiological solution, to standardize experimental conditions (data not shown). A group of 5 animals were submitted to intraocular injection of 2% methylcellulose (MTC), 15 µl in physiological solution. MTC is a molecule capable of mechanically blocking the outflow of aqueous humor leading to ocular hypertension.
# (§2) Thirty animals were randomly separated into 3 experimental groups: rats from first group received mildronate 5 mM; rats from second group received mildronate 2 mM; rats from third group received mildronate 2 mM + L-carnitine 0.6 mM, 15 µl in physiological solution; all controlateral eyes were used as control.
# (§3) After local anesthesia with 0.4% oxybuprocaine eye drops (Novesina™, Novartis, Basel, Switzerland) and after induction with ether, animal were injected in the posterior chamber of the right eye with solutions described above.
# 24 hours after the intraocular injection, rats were given general anesthesia by intra-peritoneal injection of 500 pl sodium-thiopental solution (Farmotal™, Pharmacia & Upjohn, USA) in saline. They were then sacrificed by carotid bleeding and eyeballs were removed. […]
# [1] = test system: RGCs and astrocytes cells of the optic nerve; experiment: TUNEL assay (DNA damage) on eye sections after intraocular injection; details: 24 hours
# Experimental: as §1, with “hypertension. […]” for “hypertension.”
# The sections (thickness of 10 µm), left to dry at room temperature for 30 min, were subjected to the following treatments: rehydration through a descending alcohol series (100°, 95°, 75°; 2 min each); incubation with protease 20 µg/mL in Triton X-100 to 0.1% at 37°C for 30 min; washes with 1X PBS for 2 min; incubation with TUNEL reagent (In Situ Cell Death Detection Kit, AP/ROCHE), containing 1/10 in volume of terminal deoxynucleotidyl transferase and the remaining fraction of nucleotides labeled with a fluorescent chromophore, 10 µl per section at 37°C for 1h. […] The observations were made under a fluorescence microscope and pictures were taken by computerized image acquisition.
# iNOS = iNOS expression by immunohistochemistry (confirmed by western blot of retina extracts)
# Experimental: as §1, §2, §3
# (§4) 24 hours after the intraocular injection, rats were given general anesthesia by intra-peritoneal injection of 500 pl sodium-thiopental solution (Farmotal™, Pharmacia & Upjohn, USA) in saline. They were then sacrificed by carotid bleeding and eyeballs were removed.
# iNOS expression was detected with a rabbit polyclonal anti-iNOS antibody (Santa Cruz) (1:50), followed by a green fluorescent goat anti-rabbit IgG Alexa Fluor® (Molecular Probes) secondary antibody. […]
# (§5) The observations were made under a fluorescence microscope and pictures taken by computerized image acquisition. […]
# Caspase-3 = Caspase-3 expression by immunohistochemistry (confirmed by western blot of retina extracts)
# Experimental: as §1, §2, §3, §4
# Caspase-3 expression was detected with a rabbit polyclonal anti-caspase-3 antibody (Santa Cruz) (1:100), followed by a green fluorescent goat anti-rabbit IgG Alexa Fluor® (Molecular Probes) secondary antibody. […]
# as §5
structure (smiles),measurement,setting,value
"C[N+](C)(C)NCCC(=O)[O-] [mildronate, 3-(2,2,2-trimethylhydrazinium)propionate]",Cellular morphology of optic nerve,"optic nerve and retina; mildronate 5 mM, 15 µl intraocular injection, vs control eye","fibers do not run longitudinally, the papilla shows an excavation"
same,Cellular morphology of retina,"optic nerve and retina; mildronate treated animals, intraocular injection",picnotic and/or vacuolated nuclei and fragmented chromatin
same,DNA damage (TUNEL fluorescence due to DNA fragmentation),[1]; mildronate 2 mM,slight positive fluorescence
same,DNA damage (TUNEL fluorescence due to DNA fragmentation),"[1]; mildronate 5 mM, RGCs and astrocytes of the optic nerve",strong fluorescence
same,iNOS expression,"iNOS; 2 mM mildronate, optic nerve and retina, with respect to 5 mM mildronate-treated specimens",mild decrease of iNOS expression
same,iNOS expression,"iNOS; 5 mM mildronate, 24 hours, glial retinal cells and astrocytes of optic nerve, compared to control",high levels of iNOS
same,NO levels and iNOS immunolocalization,"iNOS; summary statement, dose not stated",increased NO levels and iNOS immunolocalization
same,Caspase-3 expression,"Caspase-3; 2 mM mildronate, optic nerve and retina",mild decrease of positivity
same,Caspase-3 expression,"Caspase-3; 5 mM mildronate, astrocytes and retinal cells",high caspase-3 levels
same,Apoptosis of retinal ganglion cells and optic nerve astrocytes,"Caspase-3; summary statement, 24 hours after treatment",showed apoptosis
